Experimental data reported in patent publication US11214594B2, “Antimicrobial peptide having synergistic antibacterial effect with antibiotics on multidrug resistant bacteria, and use thereof” (priority 2016, dated 2022).
Values after ≈ are worked out from the molar mass of the structure shown. Where a SMILES comes first, the peptide text is derived from it. [ ]: non-standard residue; d: D form.

What was measured:
MDREC 1238 = assay type: cell-based, Escherichia coli
Method: (§1) For the antibacterial activity, a minimal inhibitory concentration (MIC) of a peptide in which fungus bodies were not split in an MH medium with sufficient nutrients was measured.
(§2) Specifically, the strains described in the following [Table 2] were purchased and diluted with an MH medium such that the number of bacteria was 2×10^6 colony-forming units (CFUs), 100 μl of each of the diluted strains was aliquoted into a 96-well microtiter plate, and then 100 μl of a peptide solution diluted with the MH medium (solution diluted stepwise at 2: 1) was added to each well.

MDRST 8009 = assay type: cell-based, Salmonella typhimurium; conditions: agent alone
Method: as §1, §2

MDREC 1229 [1] = test: MIC of antibiotic during combined treatment with antimicrobial peptide; assay type: cell-based, Escherichia coli
Method: Specifically, the strains described in [Table 2] were prepared and diluted with an MH medium such that the number of bacteria was 2×10^6 colony-forming units (CFUs) per 1 ml, 100 μl of the diluted strains was each aliquoted into a 96-well microtiter plate, and then 50 μl of a peptide solution diluted with the MH medium from the MIC value (solution diluted stepwise at 2: 1) was added to each well. Thereafter, the MIC value of each mixed solution was determined by diluting the antibiotic solution with the MH medium, adding 50 μl of the diluted solution to each well, and performing an experiment even under a reversed condition.

S. typhimurium = test: microbe, parasite or virus in culture; assay type: cell-based, Salmonella typhimurium
Outline: (§3)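 MIC read-out = lowest peptide level with no bacterial proliferation. Strains diluted in MH medium to 2×10^6 CFU; peptide twofold serial dilutions in MH added 1:1 in microtiter wells.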

MDREC 1229 [2] = test: microbe, parasite or virus in culture; assay type: cell-based, Escherichia coli
Outline: as §3

E. coli = test: microbe, parasite or virus in culture; assay type: cell-based, Escherichia coli; conditions: 16 h
Outline: as §3

S. aureus = test: microbe, parasite or virus in culture; assay type: cell-based, Staphylococcus aureus
Outline: as §3

MDRAB 12036 = assay type: cell-based, Acinetobacter baumannii
Method: as §1, §2

MDRPA 2003 = assay type: cell-based, Pseudomonas aeruginosa
Method: as §1, §2

MDRPA 2002 = assay type: cell-based, Pseudomonas aeruginosa
Method: as §1, §2

B. subtilis = test: microbe, parasite or virus in culture; assay type: cell-based, Bacillus subtilis
Outline: as §3

MRSA 3114 = assay type: cell-based, Staphylococcus aureus; conditions: 3114
Method: as §1, §2

MRSA 3126 = assay type: cell-based, Staphylococcus aureus; conditions: 3126
Method: as §1, §2

[3] = peptide treatment concentration 1 μg/ml
[4] = peptide treatment concentration 2 μg/ml
[5] = peptide treatment concentration 4 μg/ml
[6] = peptide treatment concentration 6 μg/ml
[7] = peptide treatment concentration 8 μg/ml
[8] = peptide treatment concentration 16 μg/ml
[9] = peptide treatment concentration 32 μg/ml
[10] = peptide treatment concentration 64 μg/ml

Structure (SMILES)	Minimal inhibitory concentration MIC (MDREC 1238) [µg/mL]	Minimal inhibitory concentration MIC (MDRST 8009) [µg/mL]	Antibiotic MIC, Erythromycin (MDREC 1229 [1]; [3]) [µg/mL]	Antibiotic MIC, Linezolid (MDREC 1229 [1]; [3]) [µg/mL]	Antibiotic MIC, Vancomycin (MDREC 1229 [1]; [3]) [µg/mL]	Antibiotic MIC, Erythromycin (MDREC 1229 [1]; [4]) [µg/mL]	Antibiotic MIC, Linezolid (MDREC 1229 [1]; [4]) [µg/mL]	Antibiotic MIC, Vancomycin (MDREC 1229 [1]; [4]) [µg/mL]	Antibiotic MIC, Erythromycin (MDREC 1229 [1]; [5]) [µg/mL]	Antibiotic MIC, Linezolid (MDREC 1229 [1]; [5]) [µg/mL]	Antibiotic MIC, Vancomycin (MDREC 1229 [1]; [5]) [µg/mL]	Antibiotic MIC, Erythromycin (MDREC 1229 [1]; [6]) [µg/mL]	Antibiotic MIC, Linezolid (MDREC 1229 [1]; [6]) [µg/mL]	Antibiotic MIC, Vancomycin (MDREC 1229 [1]; [6]) [µg/mL]	Antibiotic MIC, Erythromycin (MDREC 1229 [1]; [7]) [µg/mL]	Antibiotic MIC, Linezolid (MDREC 1229 [1]; [7]) [µg/mL]	Antibiotic MIC, Vancomycin (MDREC 1229 [1]; [7]) [µg/mL]	Antibiotic MIC, Erythromycin (MDREC 1229 [1]; [8]) [µg/mL]	Antibiotic MIC, Linezolid (MDREC 1229 [1]; [8]) [µg/mL]	Antibiotic MIC, Vancomycin (MDREC 1229 [1]; [8]) [µg/mL]	further results
CC[C@H](C)[C@H](NC(=O)[C@H](CCCCN)NC(=O)[C@H](Cc1c[nH]c2ccccc12)NC(=O)[C@@H](N)CCCNC(=N)N)C(=O)N[C@@H](Cc1ccccc1)C(=O)N[C@@H](CCCCN)C(=O)N[C@@H](CCCCN)C(=O)N[C@H](C(=O)N[C@H](CCCCN)C(=O)N[C@@H](CCCCN)C(=O)N[C@@H](CC(C)C)C(=O)N[C@@H](CC(C)C)C(=O)N[C@@H](Cc1c[nH]cn1)C(=O)N[C@@H](CCCCN)C(=O)N[C@@H](C)C(=O)N[C@@H](CCCCN)C(=O)N[C@@H](CCCCN)C(=O)N[C@@H](Cc1c[nH]c2ccccc12)C(N)=O)[C@@H](C)CC [PapMA-18, RWK IFK KIk KLL HKA KKW-NH2] (H-RWKIFKKI[dK]KLLHKAKKW-NH2; N-terminus assumed)	64 (≈ 26.9 µM)	64 (≈ 26.9 µM)	>128	>128	>128	32	>128	>128	16	64	>128	4	32	32	2	16	16	1	8	8	Antibiotic MIC, Erythromycin (MDREC 1229 [1]; [9]): 0.5 µg/mL; Antibiotic MIC, Linezolid (MDREC 1229 [1]; [9]): 4 µg/mL; Antibiotic MIC, Vancomycin (MDREC 1229 [1]; [9]): 4 µg/mL; Antibiotic MIC, Erythromycin (MDREC 1229 [1]; [10]): 0 µg/mL; Antibiotic MIC, Linezolid (MDREC 1229 [1]; [10]): 0 µg/mL; Antibiotic MIC, Vancomycin (MDREC 1229 [1]; [10]): 0 µg/mL; Minimal inhibitory concentration MIC (S. typhimurium): 32 µg/mL (≈ 13.5 µM); Minimal inhibitory concentration MIC (MDREC 1229 [2]): 64 µg/mL (≈ 26.9 µM); Peptide MIC, peptide alone (MDREC 1229 [2]): 64 µg/mL; Minimal inhibitory concentration MIC (E. coli): 64 µg/mL (≈ 26.9 µM); Minimal inhibitory concentration MIC (S. aureus): >128 µg/mL; Minimal inhibitory concentration MIC (MDRAB 12036): 32 µg/mL (≈ 13.5 µM); Minimal inhibitory concentration MIC (MDRPA 2003): 64 µg/mL (≈ 26.9 µM); Minimal inhibitory concentration MIC (MDRPA 2002): 32 µg/mL (≈ 13.5 µM); Minimal inhibitory concentration MIC (B. subtilis): >128 µg/mL; Minimal inhibitory concentration MIC (MRSA 3114): >128 µg/mL; Minimal inhibitory concentration MIC (MRSA 3126): >128 µg/mL
CC[C@H](C)[C@H](NC(=O)[C@H](CCCCN)NC(=O)[C@H](Cc1c[nH]c2ccccc12)NC(=O)[C@@H](N)CCCNC(=N)N)C(=O)N[C@@H](Cc1ccccc1)C(=O)N[C@@H](CCCCN)C(=O)N[C@@H](CCCCN)C(=O)N[C@H](C(=O)N1CCC[C@H]1C(=O)N[C@@H](CCCCN)C(=O)N[C@@H](Cc1ccccc1)C(=O)N[C@@H](CC(C)C)C(=O)N[C@@H](Cc1c[nH]cn1)C(=O)N[C@@H](CO)C(=O)N[C@@H](CC(C)C)C(=O)N[C@@H](CCCCN)C(=O)N[C@@H](CCCCN)C(=O)N[C@@H](Cc1ccccc1)C(N)=O)[C@@H](C)CC [PapMA-6, RWK IFK KIP KFL HSL KKF-NH2] (H-RWKIFKKIPKFLHSLKKF-NH2; N-terminus assumed)	64 (≈ 27.3 µM)	64 (≈ 27.3 µM)	64	128	>128	32	64	>128	8	32	>128	2	8	64	1	8	16	0.25	4	4	Antibiotic MIC, Erythromycin (MDREC 1229 [1]; [9]): 0.125 µg/mL; Antibiotic MIC, Linezolid (MDREC 1229 [1]; [9]): 1 µg/mL; Antibiotic MIC, Vancomycin (MDREC 1229 [1]; [9]): 2 µg/mL; Antibiotic MIC, Erythromycin (MDREC 1229 [1]; [10]): 0 µg/mL; Antibiotic MIC, Linezolid (MDREC 1229 [1]; [10]): 0 µg/mL; Antibiotic MIC, Vancomycin (MDREC 1229 [1]; [10]): 0 µg/mL; Minimal inhibitory concentration MIC (S. typhimurium): 16 µg/mL (≈ 6.83 µM); Minimal inhibitory concentration MIC (MDREC 1229 [2]): 64 µg/mL (≈ 27.3 µM); Minimal inhibitory concentration MIC (E. coli): 64 µg/mL (≈ 27.3 µM); Minimal inhibitory concentration MIC (S. aureus): >128 µg/mL; Minimal inhibitory concentration MIC (MDRAB 12036): 64 µg/mL (≈ 27.3 µM); Minimal inhibitory concentration MIC (MDRPA 2003): 32 µg/mL (≈ 13.7 µM); Minimal inhibitory concentration MIC (MDRPA 2002): 32 µg/mL (≈ 13.7 µM); Minimal inhibitory concentration MIC (B. subtilis): >128 µg/mL; Minimal inhibitory concentration MIC (MRSA 3114): >128 µg/mL; Minimal inhibitory concentration MIC (MRSA 3126): >128 µg/mL
CC[C@H](C)[C@H](NC(=O)[C@H](CCCCN)NC(=O)[C@H](Cc1c[nH]c2ccccc12)NC(=O)[C@@H](N)CCCNC(=N)N)C(=O)N[C@@H](Cc1ccccc1)C(=O)N[C@@H](CCCCN)C(=O)N[C@@H](CCCCN)C(=O)N[C@H](C(=O)N1CCC[C@H]1C(=O)N[C@@H](CCCCN)C(=O)N[C@@H](Cc1ccccc1)C(=O)N[C@@H](CC(C)C)C(=O)N[C@@H](Cc1c[nH]cn1)C(=O)N[C@@H](CCC(=O)O)C(=O)N[C@@H](C)C(=O)N[C@@H](CCCCN)C(=O)N[C@@H](CCCCN)C(=O)N[C@@H](Cc1ccccc1)C(N)=O)[C@@H](C)CC [PapMA-11, RWK IFK KIP KFL HEA KKF-NH2] (H-RWKIFKKIPKFLHEAKKF-NH2; N-terminus assumed)	64 (≈ 27.3 µM)	64 (≈ 27.3 µM)	128	>128	>128	64	>128	>128	16	128	>128	8	128	>128	4	32	128	1	16	16	Antibiotic MIC, Erythromycin (MDREC 1229 [1]; [9]): 0.5 µg/mL; Antibiotic MIC, Linezolid (MDREC 1229 [1]; [9]): 8 µg/mL; Antibiotic MIC, Vancomycin (MDREC 1229 [1]; [9]): 8 µg/mL; Antibiotic MIC, Erythromycin (MDREC 1229 [1]; [10]): 0 µg/mL; Antibiotic MIC, Linezolid (MDREC 1229 [1]; [10]): 0 µg/mL; Antibiotic MIC, Vancomycin (MDREC 1229 [1]; [10]): 0 µg/mL; Minimal inhibitory concentration MIC (S. typhimurium): 64 µg/mL (≈ 27.3 µM); Minimal inhibitory concentration MIC (MDREC 1229 [2]): 64 µg/mL (≈ 27.3 µM); Peptide MIC, peptide alone (MDREC 1229 [2]): 64 µg/mL; Minimal inhibitory concentration MIC (E. coli): 64 µg/mL (≈ 27.3 µM); Minimal inhibitory concentration MIC (S. aureus): >128 µg/mL; Minimal inhibitory concentration MIC (MDRAB 12036): 64 µg/mL (≈ 27.3 µM); Minimal inhibitory concentration MIC (MDRPA 2003): >128 µg/mL; Minimal inhibitory concentration MIC (MDRPA 2002): 128 µg/mL (≈ 54.6 µM); Minimal inhibitory concentration MIC (B. subtilis): >128 µg/mL; Minimal inhibitory concentration MIC (MRSA 3114): >128 µg/mL; Minimal inhibitory concentration MIC (MRSA 3126): >128 µg/mL
